Earlier results in PMC5751249, “Anti-Diabetic Effect of Organo-Chalcogen (Sulfur and Selenium) Zinc Complexes with Hydroxy-Pyrone Derivatives on Leptin-Deficient Type 2 Diabetes Model ob/ob Mice” (International Journal of Molecular Sciences, 2017).

Tests used:
[1] = test system: Isolated male Wistar rat epididymal adipocytes; design: method as in PMID 29843022; settings: adrenaline-stimulated, means ± SDs, three runs, read-out: IC50 of free fatty acid release; cited from earlier work
[2] = test system: Isolated male Wistar rat epididymal adipocytes; design: method as in PMID 29843022; settings: 20 μM Zn complex, means ± SDs, three runs; cited from earlier work

In the case of `O.O.O.O.O.O.O.O=S(=O)([O-])[O-].[Zn+2]` [ZnSO4, Zinc sulfate heptahydrate, reference compound], the IC50 [1] is given as 585 ± 305 µM and the “Glucose Uptake” value [2] is given as “none”.
